Laboratory results reported in article PMC6437697 (Journal of Medicinal Chemistry, 2019).

Columns and labels:
Assay in all cases: KINOMEscan
Type in all cases: binding
Conditions in all cases: read-out: % control activity remaining
[1] = molecular target: T1, ABL1(F317I)-nonphosphorylated (Homo sapiens, UniProt P00519, F317I)
T1 construct: purchased Eurofins DiscoverX KINOMEscan

ABL2 = molecular target: T2, ABL2 (Homo sapiens, UniProt P42684)
T2 construct: purchased Eurofins DiscoverX KINOMEscan
T2 sequence (P42684 whole entry): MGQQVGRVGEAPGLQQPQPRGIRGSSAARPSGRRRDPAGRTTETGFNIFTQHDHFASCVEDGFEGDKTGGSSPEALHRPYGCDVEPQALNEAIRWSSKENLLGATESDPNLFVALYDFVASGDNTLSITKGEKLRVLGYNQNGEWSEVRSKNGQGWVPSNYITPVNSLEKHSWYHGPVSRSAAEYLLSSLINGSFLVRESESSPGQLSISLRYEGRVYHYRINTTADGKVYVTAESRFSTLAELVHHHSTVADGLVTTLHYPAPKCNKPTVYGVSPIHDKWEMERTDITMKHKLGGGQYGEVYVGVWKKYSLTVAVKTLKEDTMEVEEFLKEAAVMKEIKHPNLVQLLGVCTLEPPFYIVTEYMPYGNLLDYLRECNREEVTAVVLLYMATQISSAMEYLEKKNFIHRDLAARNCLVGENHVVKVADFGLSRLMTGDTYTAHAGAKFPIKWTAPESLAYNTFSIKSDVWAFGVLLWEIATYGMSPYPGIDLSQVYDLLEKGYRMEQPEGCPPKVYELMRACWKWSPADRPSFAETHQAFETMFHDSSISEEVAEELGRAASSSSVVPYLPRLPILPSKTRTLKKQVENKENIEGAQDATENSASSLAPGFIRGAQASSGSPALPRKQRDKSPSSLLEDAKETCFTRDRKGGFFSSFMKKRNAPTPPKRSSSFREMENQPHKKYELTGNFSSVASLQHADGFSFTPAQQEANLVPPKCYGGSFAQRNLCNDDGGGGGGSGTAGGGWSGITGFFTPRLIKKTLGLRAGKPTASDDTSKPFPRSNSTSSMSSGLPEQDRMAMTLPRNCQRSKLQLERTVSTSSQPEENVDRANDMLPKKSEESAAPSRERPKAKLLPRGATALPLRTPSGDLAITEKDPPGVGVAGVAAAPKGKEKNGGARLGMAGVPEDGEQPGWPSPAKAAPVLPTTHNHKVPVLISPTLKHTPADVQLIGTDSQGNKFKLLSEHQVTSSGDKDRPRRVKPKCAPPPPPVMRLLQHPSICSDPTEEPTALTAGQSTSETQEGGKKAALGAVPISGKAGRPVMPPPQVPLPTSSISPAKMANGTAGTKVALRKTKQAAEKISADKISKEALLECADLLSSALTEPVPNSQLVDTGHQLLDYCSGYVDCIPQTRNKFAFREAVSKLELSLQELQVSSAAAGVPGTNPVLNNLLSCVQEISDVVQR

BRSK1 = molecular target: T3, BRSK1 (Homo sapiens, UniProt Q8TDC3)
T3 construct: purchased Eurofins DiscoverX KINOMEscan
T3 sequence (Q8TDC3 1-778): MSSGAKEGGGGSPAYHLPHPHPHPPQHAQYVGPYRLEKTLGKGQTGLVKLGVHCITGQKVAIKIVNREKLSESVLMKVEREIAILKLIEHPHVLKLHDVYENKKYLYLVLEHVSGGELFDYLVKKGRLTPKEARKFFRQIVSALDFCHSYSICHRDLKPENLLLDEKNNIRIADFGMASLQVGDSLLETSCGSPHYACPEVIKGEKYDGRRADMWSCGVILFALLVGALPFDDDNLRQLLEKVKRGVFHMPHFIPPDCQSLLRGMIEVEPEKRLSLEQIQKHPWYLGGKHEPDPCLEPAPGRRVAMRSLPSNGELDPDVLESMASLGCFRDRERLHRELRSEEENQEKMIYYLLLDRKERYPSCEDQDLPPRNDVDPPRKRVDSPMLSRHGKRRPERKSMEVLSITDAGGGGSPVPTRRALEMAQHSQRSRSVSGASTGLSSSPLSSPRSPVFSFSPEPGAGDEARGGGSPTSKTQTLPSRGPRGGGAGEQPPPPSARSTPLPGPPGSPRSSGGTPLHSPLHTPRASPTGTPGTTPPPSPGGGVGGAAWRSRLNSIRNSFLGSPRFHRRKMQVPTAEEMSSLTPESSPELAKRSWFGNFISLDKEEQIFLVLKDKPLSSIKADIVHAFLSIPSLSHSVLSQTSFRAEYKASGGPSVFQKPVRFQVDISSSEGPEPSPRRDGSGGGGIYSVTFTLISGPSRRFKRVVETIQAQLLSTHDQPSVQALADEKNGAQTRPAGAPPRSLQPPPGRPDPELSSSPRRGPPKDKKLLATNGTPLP

CAMK1 = molecular target: T4, CAMK1 (Homo sapiens, UniProt Q14012)
T4 construct: purchased Eurofins DiscoverX KINOMEscan

CAMK4 = molecular target: T5, CAMK4 (Homo sapiens, UniProt Q16566)
T5 construct: purchased Eurofins DiscoverX KINOMEscan

EPHA6 = molecular target: T6, EPHA6 (Homo sapiens, UniProt Q9UF33)
T6 construct: purchased Eurofins DiscoverX KINOMEscan
T6 sequence (Q9UF33 23-1036): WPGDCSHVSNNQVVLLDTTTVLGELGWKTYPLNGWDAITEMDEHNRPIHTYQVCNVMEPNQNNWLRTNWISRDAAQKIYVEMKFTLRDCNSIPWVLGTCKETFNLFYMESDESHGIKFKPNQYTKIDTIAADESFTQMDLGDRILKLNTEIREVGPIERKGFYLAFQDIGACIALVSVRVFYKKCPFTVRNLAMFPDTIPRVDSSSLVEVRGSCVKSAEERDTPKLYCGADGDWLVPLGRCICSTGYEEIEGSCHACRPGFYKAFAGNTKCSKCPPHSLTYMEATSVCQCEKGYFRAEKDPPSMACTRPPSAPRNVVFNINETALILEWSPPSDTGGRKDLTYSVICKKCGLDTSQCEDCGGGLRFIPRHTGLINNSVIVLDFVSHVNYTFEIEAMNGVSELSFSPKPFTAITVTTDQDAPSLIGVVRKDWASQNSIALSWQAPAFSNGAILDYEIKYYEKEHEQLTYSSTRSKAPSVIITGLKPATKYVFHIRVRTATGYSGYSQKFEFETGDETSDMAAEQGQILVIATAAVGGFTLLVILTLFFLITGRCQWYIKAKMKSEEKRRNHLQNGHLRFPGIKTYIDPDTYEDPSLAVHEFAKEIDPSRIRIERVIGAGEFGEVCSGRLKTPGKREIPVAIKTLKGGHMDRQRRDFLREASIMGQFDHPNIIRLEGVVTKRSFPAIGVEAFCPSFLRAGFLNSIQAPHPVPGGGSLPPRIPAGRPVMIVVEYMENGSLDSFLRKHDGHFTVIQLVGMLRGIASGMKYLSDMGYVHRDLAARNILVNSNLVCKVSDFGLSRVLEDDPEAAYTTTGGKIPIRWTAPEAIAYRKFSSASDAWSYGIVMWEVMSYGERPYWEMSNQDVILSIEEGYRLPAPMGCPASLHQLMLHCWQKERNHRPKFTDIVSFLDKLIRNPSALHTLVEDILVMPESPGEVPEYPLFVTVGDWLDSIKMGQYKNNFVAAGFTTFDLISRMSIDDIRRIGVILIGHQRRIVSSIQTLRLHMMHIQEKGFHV

IRAK1 = molecular target: T7, IRAK1 (Homo sapiens, UniProt P51617)
T7 construct: purchased Eurofins DiscoverX KINOMEscan

LRRK2 = molecular target: T8, LRRK2 (Homo sapiens, UniProt Q5S007)
T8 construct: purchased Eurofins DiscoverX KINOMEscan

MKNK1 = molecular target: T9, MKNK1 (Homo sapiens, UniProt Q9BUB5)
T9 construct: purchased Eurofins DiscoverX KINOMEscan
T9 sequence (Q9BUB5 whole entry): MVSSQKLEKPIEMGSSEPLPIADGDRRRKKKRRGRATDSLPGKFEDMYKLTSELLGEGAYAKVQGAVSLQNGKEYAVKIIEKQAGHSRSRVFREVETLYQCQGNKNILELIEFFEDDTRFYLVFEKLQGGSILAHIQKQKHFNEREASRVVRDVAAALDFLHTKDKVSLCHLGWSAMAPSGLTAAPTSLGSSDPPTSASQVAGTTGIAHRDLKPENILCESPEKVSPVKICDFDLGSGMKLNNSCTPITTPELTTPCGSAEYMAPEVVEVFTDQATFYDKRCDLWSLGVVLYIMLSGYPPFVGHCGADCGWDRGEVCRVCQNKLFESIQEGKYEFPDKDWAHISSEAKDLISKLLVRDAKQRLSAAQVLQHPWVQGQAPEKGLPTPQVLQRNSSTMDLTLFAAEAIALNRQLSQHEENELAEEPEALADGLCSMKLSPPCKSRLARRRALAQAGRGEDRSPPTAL

MRCKB = molecular target: T10, MRCKB (Homo sapiens, UniProt Q9Y5S2)
T10 construct: purchased Eurofins DiscoverX KINOMEscan

NIM1 = molecular target: T11, NIM1 (Homo sapiens, UniProt Q8IY84)
T11 construct: purchased Eurofins DiscoverX KINOMEscan

PIK3CA(Q546K) = molecular target: T12, PIK3CA(Q546K) (Homo sapiens, UniProt P42336, Q546K)
T12 construct: purchased Eurofins DiscoverX KINOMEscan

[2] = molecular target: T13, RPS6KA5(Kin.Dom.2-C-terminal) (Homo sapiens, UniProt O75582)
T13 construct: RPS6KA5(Kin.Dom.2-C-terminal); purchased Eurofins DiscoverX KINOMEscan
T13 sequence (O75582 426-687 limits assumed): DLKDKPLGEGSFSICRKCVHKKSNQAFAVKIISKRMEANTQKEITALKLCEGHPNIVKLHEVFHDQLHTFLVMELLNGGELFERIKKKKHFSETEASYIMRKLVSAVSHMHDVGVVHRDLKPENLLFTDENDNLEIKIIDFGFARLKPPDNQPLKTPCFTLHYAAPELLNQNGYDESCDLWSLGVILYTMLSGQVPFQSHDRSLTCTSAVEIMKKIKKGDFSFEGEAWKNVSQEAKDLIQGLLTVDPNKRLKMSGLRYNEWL

[3] = molecular target: T14, RSK3(Kin.Dom.1-N-terminal) (Homo sapiens, UniProt Q15349)
T14 construct: RSK3(Kin.Dom.1-N-terminal); purchased Eurofins DiscoverX KINOMEscan

[4] = molecular target: T15, RSK4(Kin.Dom.1-N-terminal) (Homo sapiens, UniProt Q9UK32)
T15 construct: RSK4(Kin.Dom.1-N-terminal); purchased Eurofins DiscoverX KINOMEscan
T15 sequence (Q9UK32 73-330 limits assumed): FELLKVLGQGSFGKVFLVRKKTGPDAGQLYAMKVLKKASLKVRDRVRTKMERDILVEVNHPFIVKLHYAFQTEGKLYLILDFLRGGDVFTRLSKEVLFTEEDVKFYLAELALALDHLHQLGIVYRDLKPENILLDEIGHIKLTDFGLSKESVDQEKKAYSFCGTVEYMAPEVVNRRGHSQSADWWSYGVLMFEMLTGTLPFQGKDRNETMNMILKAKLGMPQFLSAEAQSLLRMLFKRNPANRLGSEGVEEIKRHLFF

S6K1 = molecular target: T16, S6K1 (Homo sapiens, UniProt P23443)
T16 construct: purchased Eurofins DiscoverX KINOMEscan
T16 sequence (P23443 whole entry): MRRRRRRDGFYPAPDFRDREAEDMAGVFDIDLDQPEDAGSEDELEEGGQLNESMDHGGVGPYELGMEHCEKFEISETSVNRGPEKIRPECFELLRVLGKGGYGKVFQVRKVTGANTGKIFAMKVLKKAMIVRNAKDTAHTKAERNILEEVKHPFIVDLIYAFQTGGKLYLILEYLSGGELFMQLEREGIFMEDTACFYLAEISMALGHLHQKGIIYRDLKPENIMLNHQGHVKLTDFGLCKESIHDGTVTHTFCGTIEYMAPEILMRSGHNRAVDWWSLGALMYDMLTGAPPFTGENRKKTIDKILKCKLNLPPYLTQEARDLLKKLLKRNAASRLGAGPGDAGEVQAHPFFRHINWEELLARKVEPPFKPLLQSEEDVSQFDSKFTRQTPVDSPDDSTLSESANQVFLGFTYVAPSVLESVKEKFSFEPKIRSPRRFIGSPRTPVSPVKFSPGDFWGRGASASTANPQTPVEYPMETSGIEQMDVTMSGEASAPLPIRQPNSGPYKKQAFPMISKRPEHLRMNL

SRMS = molecular target: T17, SRMS (Homo sapiens, UniProt Q9H3Y6)
T17 construct: purchased Eurofins DiscoverX KINOMEscan

TNK2 = molecular target: T18, TNK2 (Homo sapiens, UniProt Q07912)
T18 construct: purchased Eurofins DiscoverX KINOMEscan
T18 sequence (Q07912 whole entry): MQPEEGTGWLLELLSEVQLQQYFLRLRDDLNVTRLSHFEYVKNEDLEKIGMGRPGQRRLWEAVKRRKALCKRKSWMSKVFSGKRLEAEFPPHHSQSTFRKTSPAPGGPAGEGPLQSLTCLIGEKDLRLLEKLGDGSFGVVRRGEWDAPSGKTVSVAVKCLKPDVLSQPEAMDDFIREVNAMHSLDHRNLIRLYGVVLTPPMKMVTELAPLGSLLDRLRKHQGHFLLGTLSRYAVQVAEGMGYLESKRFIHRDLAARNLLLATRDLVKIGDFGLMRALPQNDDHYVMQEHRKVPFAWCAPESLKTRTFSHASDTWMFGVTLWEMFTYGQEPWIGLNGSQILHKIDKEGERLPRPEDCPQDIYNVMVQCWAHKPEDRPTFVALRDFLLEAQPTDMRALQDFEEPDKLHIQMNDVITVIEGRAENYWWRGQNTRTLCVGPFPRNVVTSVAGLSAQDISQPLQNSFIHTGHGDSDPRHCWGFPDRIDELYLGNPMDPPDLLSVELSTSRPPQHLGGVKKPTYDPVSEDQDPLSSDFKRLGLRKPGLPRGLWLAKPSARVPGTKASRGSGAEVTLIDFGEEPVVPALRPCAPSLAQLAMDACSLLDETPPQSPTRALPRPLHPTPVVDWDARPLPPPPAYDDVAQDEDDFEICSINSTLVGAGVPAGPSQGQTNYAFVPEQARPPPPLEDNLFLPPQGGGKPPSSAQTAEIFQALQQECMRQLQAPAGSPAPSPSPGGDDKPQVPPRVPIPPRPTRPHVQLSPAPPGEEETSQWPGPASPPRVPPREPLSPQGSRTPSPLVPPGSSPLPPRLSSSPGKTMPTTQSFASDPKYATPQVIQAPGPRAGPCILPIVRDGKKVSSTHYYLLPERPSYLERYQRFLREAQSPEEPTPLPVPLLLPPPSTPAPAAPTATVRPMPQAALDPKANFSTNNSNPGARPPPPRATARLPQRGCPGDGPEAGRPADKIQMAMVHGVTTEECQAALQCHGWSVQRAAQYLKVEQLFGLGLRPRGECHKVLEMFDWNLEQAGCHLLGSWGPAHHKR

T1 sequence (P00519 whole entry F317I): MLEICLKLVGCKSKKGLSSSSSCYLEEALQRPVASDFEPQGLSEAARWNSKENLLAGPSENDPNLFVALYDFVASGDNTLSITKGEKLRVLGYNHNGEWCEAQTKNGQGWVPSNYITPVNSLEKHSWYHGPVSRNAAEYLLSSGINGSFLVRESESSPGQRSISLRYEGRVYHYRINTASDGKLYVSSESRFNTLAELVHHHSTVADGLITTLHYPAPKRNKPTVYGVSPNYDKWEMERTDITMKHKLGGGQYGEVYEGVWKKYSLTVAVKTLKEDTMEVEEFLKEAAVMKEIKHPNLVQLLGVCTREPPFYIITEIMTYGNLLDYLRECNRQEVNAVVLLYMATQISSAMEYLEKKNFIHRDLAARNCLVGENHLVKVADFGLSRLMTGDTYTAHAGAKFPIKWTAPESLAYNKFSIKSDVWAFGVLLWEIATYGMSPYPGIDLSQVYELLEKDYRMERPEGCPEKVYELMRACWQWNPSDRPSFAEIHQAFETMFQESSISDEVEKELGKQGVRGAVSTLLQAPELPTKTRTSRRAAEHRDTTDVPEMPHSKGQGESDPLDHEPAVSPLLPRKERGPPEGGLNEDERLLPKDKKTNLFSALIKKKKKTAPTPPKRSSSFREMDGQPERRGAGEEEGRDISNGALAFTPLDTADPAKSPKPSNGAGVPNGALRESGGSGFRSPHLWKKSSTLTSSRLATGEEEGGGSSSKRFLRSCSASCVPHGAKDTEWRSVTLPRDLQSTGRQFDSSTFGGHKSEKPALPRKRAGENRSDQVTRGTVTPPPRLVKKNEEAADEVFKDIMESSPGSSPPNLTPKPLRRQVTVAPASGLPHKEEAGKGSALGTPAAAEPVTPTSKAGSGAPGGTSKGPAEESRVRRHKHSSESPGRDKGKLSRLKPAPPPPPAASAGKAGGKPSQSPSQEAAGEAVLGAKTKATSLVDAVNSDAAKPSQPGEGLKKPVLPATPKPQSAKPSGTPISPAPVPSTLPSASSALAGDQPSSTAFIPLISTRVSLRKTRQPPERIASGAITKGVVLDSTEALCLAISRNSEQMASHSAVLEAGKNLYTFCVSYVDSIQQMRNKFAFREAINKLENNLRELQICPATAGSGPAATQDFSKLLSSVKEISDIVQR

| Structure (SMILES) | remaining binding at 1 µM [1] | remaining binding at 1 µM (ABL2) | remaining binding at 1 µM (BRSK1) | remaining binding at 1 µM (CAMK1) | remaining binding at 1 µM (CAMK4) | remaining binding at 1 µM (EPHA6) | remaining binding at 1 µM (IRAK1) | remaining binding at 1 µM (LRRK2) | remaining binding at 1 µM (MKNK1) | remaining binding at 1 µM (MRCKB) | remaining binding at 1 µM (NIM1) | remaining binding at 1 µM (PIK3CA(Q546K)) | remaining binding at 1 µM [2] | remaining binding at 1 µM [3] | remaining binding at 1 µM [4] | remaining binding at 1 µM (S6K1) | remaining binding at 1 µM (SRMS) | remaining binding at 1 µM (TNK2) |
| --- | --- | --- | --- | --- | --- | --- | --- | --- | --- | --- | --- | --- | --- | --- | --- | --- | --- | --- |
| Clc1cc(NCC2CC2)c2ncc(-c3ccc4[nH]ncc4c3)n2n1 [compound 2, 6-Chloro-N-(cyclopropylmethyl)-3-(1H-indazol-5-yl)imidazo[1,2-b]pyridazin-8-amine] | 71% | 100% | 96% | 100% | 100% | 79% | 95% | 94% | 82% | 64% | 97% | 88% | 93% | 82% | 27% | 90% | 91% | 86% |
| O=C(CN1CCOCC1)N[C@H]1CC[C@H](Nc2cc(Cl)nn3c(-c4ccc5[nH]ncc5c4)cnc23)CC1 [compound 26] | 28% | 56% | 86% | 77% | 100% | 93% | 45% | 90% | 88% | 97% | 91% | 100% | 80% | 52% | 13% | 88% | 86% | 93% |
| CN1CCC(CNc2cc(Cl)nn3c(-c4cc5nc(Nc6ccccc6)[nH]c5cc4F)cnc23)CC1 [compound 31, 6-Chloro-3-(6-fluoro-2-(phenylamino)-1H-benzo[d]imidazol-5-yl)-N-((1-methylpiperidin-4-yl)methyl)imidazo[1,2-b]pyridazin-8-amine] | 63% | 92% | 100% | 84% | 100% | 82% | 89% | 100% | 83% | 100% | 77% | 81% | 99% | 78% | 97% | 95% | 95% | 100% |
